For test [1], the system named is primary human T-cells. The test is described as follows: Proliferation assay after 5 days (CellTiter-Glo, CD3 stimulation; PBS counter screen). It is filed as cell-based. Conditions: CD3 stimulation; for Emax proliferation (% activation) / Emax: 5 days, normalized to reference compound A1 as stimulator control = 100%, DMSO neutral control; for EC50: primary human T-cells, CellTiter-Glo after 5 days, EC50 of fitted sigmoidal curve, read-out: Tcell Proliferation CD3 EC50; for Emax: read-out: Emax proliferation (% activation). In a few lines:
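Primary human T-cells, with or without CD3 stimulation, exposed to compounds for 5 days; cell number read as ATP by CellTiter-Glo 2.0 luminescence after 45 min equilibration and 15 min reagent incubation at room temperature. Compounds activating unstimulated cells or reducing viability were flagged.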

In test [2] the test system is primary human T-cells.

Where two headings read alike, the source gives them in different places.

With “(3R)-3-amino-7-[5-[4-(chloromethyl)-4-(hydroxymethyl)cyclohexyl]-1,3,4-oxadiazol-2-yl]-5-[(4-chlorophenyl)methyl]-8-fluoro-1,1-dioxo-2,3-dihydro-1λ^6.5-benzothiazepin-4-one [Example 482]”, in the test with primary human T-cells [1], the “Emax proliferation (% activation)” value is given as 106 % activation and the EC50 was determined as 786 nM. This compound also came in with an EC50 with primary human T-cells [2] of 1250 nM.
Regarding `N[C@H]1CS(=O)(=O)c2cc(F)c(-c3noc(N4CCOC5(CC5)C4)n3)cc2N(Cc2ccc(Cl)cc2)C1=O` [Example 194, (3R)-3-amino-5-[(4-chlorophenyl)methyl]-8-fluoro-7-[5-(4-oxa-7-azaspiro[2.5]octan-7-yl)-1,2,4-oxadiazol-3-yl]-1,1-dioxo-2,3-dihydro-1λ^6,5-benzothiazepin-4-one], in the test with primary human T-cells [1] (Homo sapiens, T-cell, 120 h), the Emax is 79% and the EC50 stood at 15.2 nM. For the same compound, in the test on primary human T-cells [2], the EC50 amounted to 40.7 nM.
Consider `N[C@H]1CS(=O)(=O)c2cc(F)c(-c3nnc(N4CCC(F)(F)C(CO)C4)o3)cc2N(Cc2ccc(Cl)cc2)C1=O` (stereo partly drawn) [Example 485, (3R)-3-amino-5-[(4-chlorophenyl)methyl]-7-[5-[4,4-difluoro-3-(hydroxymethyl)-1-piperidyl]-1,3,4-oxadiazol-2-yl]-8-fluoro-1,1-dioxo-2,3-dihydro-1λ^6,5-benzothiazepin-4-one], for which, in the test on primary human T-cells [1] (Homo sapiens, T-cell, 120 h), the Emax turned out to be 98%. In addition, the EC50 is 868 nM in the test on primary human T-cells [1] (Homo sapiens, T-cell, 120 h) and 8130 nM in the test with primary human T-cells [2].
Consider `CC(C)(C)c1nnc(-c2cc3c(cc2F)S(=O)(=O)C[C@H](N)C(=O)N3Cc2ccc(C3(O)COC3)cc2)o1` [Example 239, (3R)-3-amino-7-(5-tert-butyl-1,3,4-oxadiazol-2-yl)-8-fluoro-5-[[4-(3-hydroxyoxetan-3-yl)phenyl]methyl]-1,1-dioxo-2,3-dihydro-1λ^6,5-benzothiazepin-4-one], for which, in the test with primary human T-cells [1] (Homo sapiens, T-cell, 120 h), the Emax came out at 69% and the EC50 came out at 5100 nM. Moreover, the EC50 in the test on primary human T-cells [2] was found to be 5580 nM.
Turning to `N[C@H]1CS(=O)(=O)c2cc(F)c(-c3nnc(NC4CCN(C5CC5)CC4)o3)cc2N(Cc2ccc(Cl)cc2)C1=O` [Example 460, (3R)-3-amino-5-[(4-chlorophenyl)methyl]-7-[5-[(1-cyclopropyl-4-piperidyl)amino]-1,3,4-oxadiazol-2-yl]-8-fluoro-1,1-dioxo-2,3-dihydro-1λ^6,5-benzothiazepin-4-one], the Emax in the test on primary human T-cells [1] (Homo sapiens, T-cell, 120 h) was 55%. Moreover, the EC50 worked out at 5700 nM in the test on primary human T-cells [1] (Homo sapiens, T-cell, 120 h) and 509 nM with primary human T-cells [2].
Consider `CC(C)OC(=O)N1CC2CC(c3nc(-c4cc5c(cc4F)S(=O)(=O)C[C@H](N)C(=O)N5Cc4ccc(Cl)cc4)no3)(C2)C1` [Example 316, isopropyl 1-[3-[(3R)-3-amino-5-[(4-chlorophenyl)methyl]-8-fluoro-1,1,4-trioxo-2,3-dihydro-1λ^6,5-benzothiazepin-7-yl]-1,2,4-oxadiazol-5-yl]-3-azabicyclo[3.1.1]heptane-3-carboxylate], for which the Emax in the test on primary human T-cells [1] (Homo sapiens, T-cell, 120 h) is 112%. Besides, the EC50 with primary human T-cells [2] amounted to 679 nM.
Consider `N[C@H]1C[S+]([O-])c2ccc(-c3nnc(CC(F)(F)F)o3)cc2N(Cc2ccc(OC(F)(F)F)cc2)C1=O` (single isomer, unassigned; epimer a) [Example 427], for which the Emax in the test with primary human T-cells [1] (Homo sapiens, T-cell, 120 h) worked out at 26%. Further, the EC50 with primary human T-cells [1] and in the test with primary human T-cells [2] was over 10000 nM throughout.
`CN1CC(c2nc(-c3cc4c(cc3F)[S+]([O-])C[C@H](N)C(=O)N4Cc3ccc(Cl)cc3)no2)CC(F)(F)C1` (single isomer, unassigned; epimer b) [Example 343]: in the test with primary human T-cells [1], the “Emax proliferation (% activation)” value was found to be 97 % activation and the EC50 came out at 2620 nM. For the same compound, the EC50 in the test with primary human T-cells [2] worked out at 4830 nM.
For the compound `CC(C)(C#N)c1nc(-c2cc3c(cc2F)S(=O)(=O)C[C@H](N)C(=O)N3Cc2ccc(Cl)cc2)no1` [Example 321, 2-[3-[(3R)-3-amino-5-[(4-chlorophenyl)methyl]-8-fluoro-1,1,4-trioxo-2,3-dihydro-1λ^6,5-benzothiazepin-7-yl]-1,2,4-oxadiazol-5-yl]-2-methyl-propanenitrile], in the test on primary human T-cells [1] (Homo sapiens, T-cell, 120 h), the Emax worked out at 130% and the EC50 is 250 nM. Further, the EC50 in the test with primary human T-cells [2] came out at 597 nM.
Taken in the same sequence, the figures for `CC(C)(C)c1nnc(-c2cc3c(cc2F)S(=O)(=O)C[C@H](N)C(=O)N3Cc2cncc(Cc3ccc(Cl)cc3)c2)o1` [Example 252, (3R)-3-amino-7-(5-tert-butyl-1,3,4-oxadiazol-2-yl)-5-[[5-[(4-chlorophenyl)methyl]-3-pyridyl]methyl]-8-fluoro-1,1-dioxo-2,3-dihydro-1λ^6,5-benzothiazepin-4-one] were 72%, 4820 nM and 1160 nM.
As to `CC(C)(C)c1nnc(-c2cc3c(cc2F)S(=O)(=O)C[C@H](N)C(=O)N3Cc2ccc(F)cc2)o1` [Example 231, (3R)-3-amino-7-(5-tert-butyl-1,3,4-oxadiazol-2-yl)-8-fluoro-5-[(4-fluorophenyl)methyl]-1,1-dioxo-2,3-dihydro-1\6,5-benzothiazepin-4-one], the Emax with primary human T-cells [1] (Homo sapiens, T-cell, 120 h) was determined as 114%. Moreover, the EC50 in the test with primary human T-cells [1] (Homo sapiens, T-cell, 120 h) was 257 nM; in the test on primary human T-cells [2], 295 nM.
For `CC(C)(C)c1ccn(-c2cc3c(cc2F)S(=O)(=O)C[C@H](N)C(=O)N3Cc2ccc(Cl)cc2)n1` [Example 283, (3R)-3-amino-7-(3-tert-butylpyrazol-1-yl)-5-[(4-chlorophenyl)methyl]-8-fluoro-1,1-dioxo-2,3-dihydro-1λ^6,5-benzothiazepin-4-one], in the test with primary human T-cells [1] (Homo sapiens, T-cell, 120 h), the Emax is 67% and the EC50 was determined as 5490 nM. In the test on primary human T-cells [2], the EC50 came to 1010 nM.
As to `CC(C)(CCCN)c1nnc(-c2cc3c(cc2F)S(=O)(=O)C[C@H](N)C(=O)N3Cc2ccc(Cl)cc2)o1` [Example 149, (3R)-3-amino-7-[5-(4-amino-1,1-dimethyl-butyl)-1,3,4-oxadiazol-2-yl]-5-[(4-chlorophenyl)methyl]-8-fluoro-1,1-dioxo-2,3-dihydro-1λ^6,5-benzothiazepin-4-one], in the test on primary human T-cells [1] (Homo sapiens, T-cell, 120 h), the Emax is 57% and the EC50 is 2560 nM. In the test with primary human T-cells [2], this compound came in with an EC50 of 4230 nM.
Turning to `N[C@H]1CS(=O)(=O)c2ccc(-c3nnc(C4CC5(CC(O)C5)C4)o3)cc2N(Cc2ccc(Cl)cc2)C1=O` (stereo partly drawn) [Example 387, (3R)-3-amino-5-[(4-chlorophenyl)methyl]-7-[5-(2-hydroxyspiro[3.3]heptan-6-yl)-1,3,4-oxadiazol-2-yl]-1,1-dioxo-2,3-dihydro-1λ^6,5-benzothiazepin-4-one], in the test with primary human T-cells [1] (Homo sapiens, T-cell, 120 h), the Emax is 157% and the EC50 is 1120 nM. This compound displayed an EC50 in the test with primary human T-cells [2] of 2280 nM.
`N[C@H]1CS(=O)(=O)c2cc(F)c(-c3nnc(C4CCCC(F)(F)C4)o3)cc2N(Cc2ccc(OC(F)(F)F)cc2)C1=O` (stereo partly drawn) [Example 55, (3R)-3-Amino-7-[5-(3,3-difluorocyclohexyl)-1,3,4-oxadiazol-2-yl]-8-fluoro-1,1-dioxo-5-[[4-(trifluoromethoxy)phenyl]methyl]-2,3-dihydro-1λ^6,5-benzothiazepin-4-one]: in the test with primary human T-cells [1] (Homo sapiens, T-cell, 120 h), the Emax came to 282% and the EC50 worked out at 50.7 nM. Further, in the test with primary human T-cells [2], the EC50 was 53.2 nM.
The like results for `NC(CNc1nc(-c2cc3c(cc2F)S(=O)(=O)C[C@H](N)C(=O)N3Cc2ccc(Cl)cc2)no1)C(F)(F)F` (stereo partly drawn) [Example 202, (3R)-3-amino-7-[5-[(2-amino-3,3,3-trifluoro-propyl)amino]-1,2,4-oxadiazol-3-yl]-5-[(4-chlorophenyl)methyl]-8-fluoro-1,1-dioxo-2,3-dihydro-1λ^6,5-benzothiazepin-4-one] were, in that order, 57%, 1430 nM and 1300 nM.
On to `CC(C)(C)NC(=O)c1nc(-c2ccc3c(c2)N(Cc2ccc(Cl)cc2)C(=O)[C@@H](N)CS3(=O)=O)no1` [Example 354, 3-[(3R)-3-amino-5-[(4-chlorophenyl)methyl]-1,1,4-trioxo-2,3-dihydro-1λ^6,5-benzothiazepin-7-yl]-N-tert-butyl-1,2,4-oxadiazole-5-carboxamide], for which, in the test with primary human T-cells [1] (Homo sapiens, T-cell, 120 h), the Emax amounted to 77% and the EC50 came out at 4710 nM. The EC50 with primary human T-cells [2] was over 10000 nM.
Consider `CC(C)(C)c1nc(-c2cc3c(cc2F)[S+]([O-])C[C@H](N)C(=O)N3Cc2ccc(Cl)cc2)no1` (single isomer, unassigned; epimer b) [Example 341], for which, in the test with primary human T-cells [1], the “Emax proliferation (% activation)” value is 105 % activation and the EC50 stood at 3010 nM. Besides, the EC50 in the test on primary human T-cells [2] was over 10000 nM.
As to `CS(=O)(=O)N1CC(c2nnc(-c3cc4c(cc3F)S(=O)(=O)C[C@H](N)C(=O)N4Cc3ccc(Cl)cc3)o2)C2(CC2)C1` (stereo partly drawn) [Example 176, (3R)-3-amino-5-[(4-chlorophenyl)methyl]-8-fluoro-7-[5-(5-methylsulfonyl-5-azaspiro[2.4]heptan-7-yl)-1,3,4-oxadiazol-2-yl]-1,1-dioxo-2,3-dihydro-1λ^6,5-benzothiazepin-4-one], in the test on primary human T-cells [1] (Homo sapiens, T-cell, 120 h), the Emax amounted to 70% and the EC50 came to 4280 nM. For the same compound, the EC50 in the test with primary human T-cells [2] amounted to 2510 nM.
For `CCn1ccc(-c2cc3c(cc2F)S(=O)(=O)C[C@H](N)C(=O)N3Cc2ccc(Cl)cc2)n1` [Example 280, (3R)-3-amino-5-[(4-chlorophenyl)methyl]-7-(1-ethylpyrazol-3-yl)-8-fluoro-1,1-dioxo-2,3-dihydro-1λ^6,5-benzothiazepin-4-one], in the test on primary human T-cells [1] (Homo sapiens, T-cell, 120 h), the Emax was 52% and the EC50 was 19500 nM. The EC50 in the test on primary human T-cells [2] is 852 nM.
Take `CNCC(=O)N[C@H]1CS(=O)(=O)c2cc(F)c(-c3nnc(C(C)(C)C)o3)cc2N(Cc2ccc(Cl)cc2)C1=O` [Example 265, N-[(3R)-7-(5-tert-butyl-1,3,4-oxadiazol-2-yl)-5-[(4-chlorophenyl)methyl]-8-fluoro-1,1,4-trioxo-2,3-dihydro-1λ^6,5-benzothiazepin-3-yl]-2-(methylamino)acetamide]: in the test on primary human T-cells [1] (Homo sapiens, T-cell, 120 h), the Emax worked out at 143% and the EC50 was determined as 884 nM. The EC50 in the test on primary human T-cells [2] was over 20000 nM.
